“And” between values parts separate entries of the source, which are not always exact repeats. Equal entries are not always repeated. Toxic doses and inconclusive results are not listed.
System: L1210 leukemia ip in BDF1 mice, survival T/C
Assay: NCI In Vivo Anticancer Drug Screen. Data for tumor model L1210 Leukemia (intraperitoneal) in B6D2F1 (BDF1) mice
Settings: endpoint: mean survival time, higher = longer survival
How it was run: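 Value reflects the ratio of survival in compound-treated mice to survival in vehicle-treated controls, with both groups carrying the same transplanted tumor.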

[1] = dose: 100.0 mg/kg/injection, schedule: Q01DX009 (ip), vehicle: saline with Tween-80
[2] = dose: 100.0 mg/kg/injection, schedule: Q04DX003 (ip), vehicle: saline with Tween-80
[3] = dose: 200.0 mg/kg/injection, schedule: Q04DX003 (ip), vehicle: saline with Tween-80
[4] = dose: 400.0 mg/kg/injection, schedule: Q01DX009 (ip), vehicle: saline with Tween-80
[5] = dose: 400.0 mg/kg/injection, schedule: Q04DX003 (ip), vehicle: saline with Tween-80
[6] = dose: 50.0 mg/kg/injection, schedule: Q01DX009 (ip), vehicle: Klucel (hydroxypropylcellulose) (HPC)
[7] = dose: 100.0 mg/kg/injection, schedule: Q01DX009 (ip), vehicle: Klucel (hydroxypropylcellulose) (HPC)
[8] = dose: 200.0 mg/kg/injection, schedule: Q01DX009 (ip), vehicle: Klucel (hydroxypropylcellulose) (HPC)
[9] = dose: 50.0 mg/kg/injection, schedule: Q01DX001 (ip), vehicle: Klucel (hydroxypropylcellulose) (HPC)
[10] = dose: 100.0 mg/kg/injection, schedule: Q01DX001 (ip), vehicle: Klucel (hydroxypropylcellulose) (HPC)
[11] = dose: 200.0 mg/kg/injection, schedule: Q01DX001 (ip), vehicle: Klucel (hydroxypropylcellulose) (HPC)
[12] = dose: 75.0 mg/kg/injection, schedule: Q01DX001 (ip), vehicle: saline
[13] = dose: 150.0 mg/kg/injection, schedule: Q01DX001 (ip), vehicle: saline

SMILES: CC(=O)Nc1ccn(C2OC(COC(C)=O)C(OC(C)=O)C2OC(C)=O)c(=O)n1 (stereo unspecified)
- T/C (dose: 6.3 mg/kg/injection, schedule: Q## X090 (ip), vehicle: carboxymethylcellulose (CMC)): 94 % of control
- T/C (dose: 12.5 mg/kg/injection, schedule: Q## X090 (ip), vehicle: carboxymethylcellulose (CMC)): 102 % of control
- T/C (dose: 18.0 mg/kg/injection, schedule: Q03HX024 (ip), vehicle: other): 114 % of control
- T/C (dose: 25.0 mg/kg/injection, schedule: Q## X090 (ip), vehicle: carboxymethylcellulose (CMC)): 97 % of control
- T/C (dose: 50.0 mg/kg/injection, schedule: Q## X090 (ip), vehicle: carboxymethylcellulose (CMC)): 102 % of control
- T/C (dose: 53.0 mg/kg/injection, schedule: Q01DX Z (ip), vehicle: carboxymethylcellulose (CMC)): 106 % of control
- T/C (dose: 75.0 mg/kg/injection, schedule: Q03HX024 (ip), vehicle: other): 168 % of control
- T/C (dose: 79.0 mg/kg/injection, schedule: Q01DX Z (ip), vehicle: carboxymethylcellulose (CMC)): 107 % of control
- T/C (dose: 119.0 mg/kg/injection, schedule: Q01DX Z (ip), vehicle: carboxymethylcellulose (CMC)): 109 % of control
- T/C (dose: 125.0 mg/kg/injection, schedule: Q01DX009 (oral), vehicle: carboxymethylcellulose (CMC)): 115 % of control
- T/C (dose: 125.0 mg/kg/injection, schedule: Q03HX024 (oral), vehicle: carboxymethylcellulose (CMC)): 111 % of control
- T/C (dose: 125.0 mg/kg/injection, schedule: Q03HX024 (oral), vehicle: water): 123 % of control
- T/C (dose: 150.0 mg/kg/injection, schedule: Q03HX024 (ip), vehicle: other): 195 % of control
- T/C (dose: 150.0 mg/kg/injection, schedule: Q04DX003 (ip), vehicle: other): 108 % of control
- T/C (dose: 178.0 mg/kg/injection, schedule: Q01DX Z (ip), vehicle: carboxymethylcellulose (CMC)): 119 % of control
- T/C (dose: 178.0 mg/kg/injection, schedule: Q01DX Z (ip), vehicle: saline): 116 % of control
- T/C (dose: 200.0 mg/kg/injection, schedule: Q01DX001 (ip), vehicle: carboxymethylcellulose (CMC)): 101 % of control
- T/C (dose: 200.0 mg/kg/injection, schedule: Q01DX010 (oral), vehicle: carboxymethylcellulose (CMC)): 112 % of control
- T/C (dose: 250.0 mg/kg/injection, schedule: Q03HX024 (oral), vehicle: carboxymethylcellulose (CMC)): 113 % of control
- T/C (dose: 250.0 mg/kg/injection, schedule: Q03HX024 (oral), vehicle: water): 121 % of control
- T/C (dose: 300.0 mg/kg/injection, schedule: Q03HX024 (ip), vehicle: other): 228 % of control
- T/C (dose: 300.0 mg/kg/injection, schedule: Q04DX003 (ip), vehicle: other): 115 % of control
- T/C (dose: 400.0 mg/kg/injection, schedule: Q01DX001 (ip), vehicle: carboxymethylcellulose (CMC)): 103 % of control
- T/C (dose: 400.0 mg/kg/injection, schedule: Q01DX Z (ip), vehicle: saline): 163 % of control
- T/C (dose: 500.0 mg/kg/injection, schedule: Q03HX024 (oral), vehicle: carboxymethylcellulose (CMC)): 124 % of control
- T/C (dose: 600.0 mg/kg/injection, schedule: Q01DX009 (ip), vehicle: other): 177 % of control and 184 % of control
- T/C (dose: 600.0 mg/kg/injection, schedule: Q01DX Z (ip), vehicle: carboxymethylcellulose (CMC)): 124 % of control and 246 % of control
- T/C (dose: 600.0 mg/kg/injection, schedule: Q01DX Z (ip), vehicle: saline): 166 % of control
- T/C (dose: 800.0 mg/kg/injection, schedule: Q01DX001 (ip), vehicle: carboxymethylcellulose (CMC)): 101 % of control
- T/C (dose: 900.0 mg/kg/injection, schedule: Q01DX Z (ip), vehicle: carboxymethylcellulose (CMC)): 175 % of control
- T/C (dose: 1000.0 mg/kg/injection, schedule: Q03HX024 (oral), vehicle: carboxymethylcellulose (CMC)): 122 % of control
- T/C (dose: 1000.0 mg/kg/injection, schedule: Q03HX024 (oral), vehicle: water): 208 % of control
- T/C (dose: 1200.0 mg/kg/injection, schedule: Q01DX009 (ip), vehicle: other): 213 % of control and 228 % of control
- T/C (dose: 1200.0 mg/kg/injection, schedule: Q04DX003 (ip), vehicle: other): 159 % of control
- T/C (dose: 1350.0 mg/kg/injection, schedule: Q01DX Z (ip), vehicle: carboxymethylcellulose (CMC)): 295 % of control
- T/C (dose: 1600.0 mg/kg/injection, schedule: Q01DX001 (ip), vehicle: carboxymethylcellulose (CMC)): 124 % of control
- T/C (dose: 1600.0 mg/kg/injection, schedule: Q01DX010 (oral), vehicle: carboxymethylcellulose (CMC)): 214 % of control
- T/C (dose: 2000.0 mg/kg/injection, schedule: Q03HX024 (oral), vehicle: water): 226 % of control
- T/C (dose: 2400.0 mg/kg/injection, schedule: Q01DX009 (ip), vehicle: other): 112 % of control
- T/C (dose: 2400.0 mg/kg/injection, schedule: Q04DX003 (ip), vehicle: other): 214 % of control

SMILES: N#CC(C#N)=Cc1ccc(O)cc1
- T/C (dose: 5.0 mg/kg/injection, schedule: Q01DX001 (ip), vehicle: saline): 105 % of control
- T/C (dose: 10.0 mg/kg/injection, schedule: Q01DX001 (ip), vehicle: saline): 105 % of control
- T/C (dose: 20.0 mg/kg/injection, schedule: Q01DX001 (ip), vehicle: saline): 92 % of control
- T/C (dose: 40.0 mg/kg/injection, schedule: Q01DX001 (ip), vehicle: saline): 103 % of control
- T/C (dose: 80.0 mg/kg/injection, schedule: Q01DX001 (ip), vehicle: saline): 97 % of control

SMILES: CCC(=O)C(CCN(C)C)(c1ccccc1)c1ccccc1
- T/C (dose: 100.0 mg/kg/injection, schedule: Q01DX001 (ip), vehicle: saline): 110 % of control

SMILES: Cc1c(Cl)cccc1NC(=O)NCCC(C)C
- T/C [1]: 86 % of control
- T/C [2]: 93 % of control
- T/C [3]: 91 % of control
- T/C [4]: 89 % of control
- T/C [5]: 95 % of control

SMILES: CC1=C(C)CC2C(=O)c3c(O)ccc(O)c3C(=O)C2C1 (stereo unspecified)
- T/C (dose: 100.0 mg/kg/injection, schedule: Q04DX002 (ip), vehicle: saline with Tween-80): 91 % of control
- T/C (dose: 200.0 mg/kg/injection, schedule: Q04DX002 (ip), vehicle: saline with Tween-80): 95 % of control
- T/C (dose: 400.0 mg/kg/injection, schedule: Q04DX002 (ip), vehicle: saline with Tween-80): 91 % of control

SMILES: COc1ccc(CC(=O)NNC(=O)C2(C(C)C)OC3(O)CCCCCN3C2=O)cc1OC (stereo unspecified)
- T/C (dose: 12.5 mg/kg/injection, schedule: Q04DX003 (ip), vehicle: saline with Tween-80): 101 % of control
- T/C (dose: 25.0 mg/kg/injection, schedule: Q04DX003 (ip), vehicle: saline with Tween-80): 92 % of control
- T/C (dose: 50.0 mg/kg/injection, schedule: Q04DX003 (ip), vehicle: saline with Tween-80): 101 % of control
- T/C [2]: 90 % of control

SMILES: O=C(Nc1cccc(C(=O)O)c1)Nc1ccccc1F
- T/C [6]: 93 % of control
- T/C [7]: 107 % of control
- T/C [8]: 93 % of control

SMILES: CCCCCCC(=O)CCC(=O)CCCCCCCC(=O)O
- T/C [9]: 103 % of control
- T/C [10]: 89 % of control
- T/C [11]: 100 % of control

SMILES: COc1ccc(-n2cc3c(=O)nccc-3c3ccccc32)cc1OC
- T/C [12]: 95 % of control
- T/C [13]: 89 % of control

SMILES: C(=NCC1CCC(CN=Cc2ccco2)CC1)c1ccco1 (stereo unspecified)
- T/C [1]: 94 % of control
- T/C [2]: 109 % of control
- T/C (dose: 200.0 mg/kg/injection, schedule: Q01DX009 (ip), vehicle: saline with Tween-80): 98 % of control
- T/C [3]: 102 % of control
- T/C [4]: 100 % of control
- T/C [5]: 106 % of control

SMILES: CC[n+]1cccc(C#N)c1
- T/C [12]: 98 % of control
- T/C (dose: 75.0 mg/kg/injection, schedule: Q04DX003 (ip), vehicle: saline): 93 % of control
- T/C [13]: 103 % of control
- T/C (dose: 150.0 mg/kg/injection, schedule: Q04DX003 (ip), vehicle: saline): 98 % of control
- T/C (dose: 300.0 mg/kg/injection, schedule: Q01DX001 (ip), vehicle: saline): 101 % of control

SMILES: Cc1[nH]c(=S)[nH]c(=O)c1CN(CCO)CCO
- T/C [9]: 123 % of control
- T/C [6]: 96 % of control
- T/C (dose: 50.0 mg/kg/injection, schedule: Q04DX003 (ip), vehicle: Klucel (hydroxypropylcellulose) (HPC)): 108 % of control
- T/C [10]: 101 % of control
- T/C [7]: 101 % of control
- T/C (dose: 100.0 mg/kg/injection, schedule: Q04DX003 (ip), vehicle: Klucel (hydroxypropylcellulose) (HPC)): 102 % of control
- T/C [11]: 101 % of control
- T/C [8]: 123 % of control
- T/C (dose: 200.0 mg/kg/injection, schedule: Q04DX003 (ip), vehicle: Klucel (hydroxypropylcellulose) (HPC)): 91 % of control

Reference: PubChem BioAssay AID248 (DTP/NCI, 2004)
